In patent US20150018311A1, “THERAPEUTIC BORON-CONTAINING COMPOUNDS” (priority 2012, published 2015):

Legend:
Assay in all cases: Growth in liquid media in presence of test compound
Format in all cases: cell-based
[1] = system: Mycobacterium tuberculosis (H37Rv)
[2] = system: Staphylococcus aureus (ATCC 25923)
Text: (§1) Test organisms used were the bacterial strains Escherichia coli (ATCC 25922), Pseudomonas aeruginosa (ATCC 27853), Staphylococcus aureus (ATCC 25923), Streptococcus pyogenes (ATCC 19615), and Mycobacterium tuberculosis (H37Rv), and the yeast strain Candida albicans (ATCC 90028).
(§2) The liquid media used for growth were Luria-Bertani (Becton Dickinson, Sparks, Md.) and Mueller-Hinton (bio-Merieux, Paris, France) broths, but with Saburo medium for Candida and Middlebrook 7H9 medium (Difco) for mycobacteria.
(§3) The strains were grown at 37° C. and after suitable cell concentrations had been reached, 100 μL of each cell suspension was added to a tube with growth media and test compound. Cultivation of the bacteria was then carried out in the presence of each test compound at 37° C. and the tubes examined for visible growth. The compounds were tested at concentrations of either 500 mg/l, 50 mg/l or 5 mg/l. This assay was repeated twice.
(§4) Some compounds were only tested against some test organisms. It will be appreciated that the charge of these molecules will depend on the environment, some of the Examples are shown with a suitable counter ion, some without.

[3] = system: Pseudomonas aeruginosa (ATCC 27853)
Text: as §1, §2, §3, §4

[4] = system: Escherichia coli (ATCC 25922)
Text: as §1, §2, §3, §4

[5] = system: Streptococcus pyogenes (ATCC 19615)
Text: as §1, §2, §3, §4

[6] = system: Candida albicans (ATCC 90028)
Text: as §1, §2, §3, §4

Row | SMILES | Growth in the presence of test compound, M. tuberculosis ([1]; 5 mg/L) | Growth in the presence of test compound, M. tuberculosis ([1]; 50 mg/L) | Growth in the presence of test compound, M. tuberculosis ([1]; 500 mg/L) | Growth in the presence of test compound, S. aureus ([2]; 5 mg/L) | Growth in the presence of test compound, S. aureus ([2]; 50 mg/L) | Growth in the presence of test compound, S. aureus ([2]; 500 mg/L) | Growth in the presence of test compound, P. aeruginosa ([3]; 5 mg/L) | Growth in the presence of test compound, P. aeruginosa ([3]; 50 mg/L) | Growth in the presence of test compound, P. aeruginosa ([3]; 500 mg/L) | Growth in the presence of test compound, E. coli ([4]; 5 mg/L) | Growth in the presence of test compound, E. coli ([4]; 50 mg/L) | Growth in the presence of test compound, E. coli ([4]; 500 mg/L) | Growth in the presence of test compound, S. pyogenes ([5]; 5 mg/L) | Growth in the presence of test compound, S. pyogenes ([5]; 50 mg/L) | Growth in the presence of test compound, S. pyogenes ([5]; 500 mg/L) | Growth in the presence of test compound, C. albicans ([6]; 5 mg/L) | Growth in the presence of test compound, C. albicans ([6]; 50 mg/L) | Growth in the presence of test compound, C. albicans ([6]; 500 mg/L)
1 | C[C@H](N)C(=O)NC[C@@H](Cc1ccc(OC(F)(F)F)cc1)B1OC2CC3CC(C3(C)C)[C@@]2(C)O1.Cl (stereo partly drawn) [Compound 56] | + | − | − | + | ± | + | + | + | + | + | + | + | + | − | + | + | ± | ±
2 | CC1(C)C2CC3OB([C@H](CCc4ccccc4)CNC(=O)[C@@H](N)Cc4ccccc4)O[C@]3(C)C1C2 (stereo partly drawn) [Compound 18] | + | − | − | + | − | ± | + | ± | ± | + | + | + | + | ± | ± | + | ± | ±
3 | CC1(C)C2CC3OB(CC(Cc4ccccc4)NC(=O)C(N)CCCCN)OC3(C)C1C2 (stereo not drawn) [Compound 54] | + | + | − | + | + | − | + | + | − | + | + | − | + | + | − | + | + | −
4 | NCCCC[C@H](N)C(=O)NC[C@@H](Cc1ccccc1)B(O)O [Compound 38] | − | − | − | + | + | ± | + | + | + | + | + | ± | + | + | − | + | + | ±
5 | CC1(C)C2CC3OB([C@@H](CNC(=O)[C@@H](N)CCCCN)Cc4ccc5ccccc5c4)O[C@]3(C)C1C2 (stereo partly drawn) [Compound 21] | − | − | − | + | ± | + | + | + | ± | + | + | + | + | + | ± | + | + | ±
